Measured values reported in US20250051338A1, “TYK2 DEGRADERS AND USES THEREOF” (Kymera Therapeutics, Inc., priority 2021, published 2025).

Experiments:
Assay type in all cases: cell-based
TYK2 [1] = target: T1, TYK2 (Homo sapiens, UniProt P29597); assay: TYK2 degradation MSD assay in OCI-LY10 cells; design: endogenous in cells; host or cells: EBV-B cells; details: 4 to 24 hours incubation, read-out: TYK2 MSD DC50 rating in OCI-LY10
In short: (§1)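 0.4 million cells/well; cpd 9-dose 1:3 titration, top 1–10 μM; 4–24 h, 37° C, 5% CO2; RIPA lysis; TYK2 capture/detection sandwich on MSD, SULFO-TAG anti-rabbit secondary; DC50 via 4-parameter fit.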

TYK2 [2] = target: T1, TYK2; assay: TYK2 degradation MSD assay in EBV-B cells; design: endogenous in cells; host or cells: EBV-B cells; details: 4 to 24 hours incubation, read-out: TYK2 MSD DC50 rating in EBV-B
In short: as §1

TYK2 [3] = target: T1, TYK2; assay: TYK2 degradation MSD assay in human PBMC cells; design: endogenous in cells; host or cells: human PBMC; details: 4 to 24 hours incubation, read-out: TYK2 MSD DC50 rating in human PBMC
In short: as §1

T1 sequence (P29597 whole entry): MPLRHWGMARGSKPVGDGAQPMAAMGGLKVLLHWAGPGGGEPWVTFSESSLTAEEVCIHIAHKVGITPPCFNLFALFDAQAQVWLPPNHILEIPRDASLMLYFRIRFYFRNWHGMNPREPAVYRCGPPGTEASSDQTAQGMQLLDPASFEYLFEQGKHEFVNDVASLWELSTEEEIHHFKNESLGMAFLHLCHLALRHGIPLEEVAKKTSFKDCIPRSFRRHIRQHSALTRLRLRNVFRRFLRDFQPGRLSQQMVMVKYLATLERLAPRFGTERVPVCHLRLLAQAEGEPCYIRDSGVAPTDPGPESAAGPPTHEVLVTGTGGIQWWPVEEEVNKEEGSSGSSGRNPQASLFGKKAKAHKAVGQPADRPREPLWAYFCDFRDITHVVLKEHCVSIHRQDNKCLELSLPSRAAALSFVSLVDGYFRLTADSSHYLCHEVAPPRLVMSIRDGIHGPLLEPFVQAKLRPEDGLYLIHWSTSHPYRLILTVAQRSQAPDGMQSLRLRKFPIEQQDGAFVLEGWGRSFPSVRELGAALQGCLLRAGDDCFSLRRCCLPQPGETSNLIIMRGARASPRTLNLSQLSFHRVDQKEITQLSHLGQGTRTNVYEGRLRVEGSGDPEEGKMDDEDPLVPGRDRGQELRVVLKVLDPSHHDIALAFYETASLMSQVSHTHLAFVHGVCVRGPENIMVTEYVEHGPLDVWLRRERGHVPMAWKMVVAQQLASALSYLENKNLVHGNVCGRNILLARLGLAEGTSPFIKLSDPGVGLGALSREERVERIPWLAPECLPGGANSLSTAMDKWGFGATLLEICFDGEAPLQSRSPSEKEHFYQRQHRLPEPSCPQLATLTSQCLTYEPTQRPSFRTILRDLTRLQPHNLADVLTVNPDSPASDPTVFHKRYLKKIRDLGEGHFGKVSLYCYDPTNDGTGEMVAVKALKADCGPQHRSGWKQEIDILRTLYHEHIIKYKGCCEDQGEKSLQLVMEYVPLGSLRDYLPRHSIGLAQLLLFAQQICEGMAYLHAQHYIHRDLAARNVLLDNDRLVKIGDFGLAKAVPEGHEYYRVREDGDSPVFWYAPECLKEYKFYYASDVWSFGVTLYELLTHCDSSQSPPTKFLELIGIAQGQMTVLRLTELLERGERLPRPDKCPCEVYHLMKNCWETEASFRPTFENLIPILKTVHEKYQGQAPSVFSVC

Structure (SMILES) | DC50 (TYK2 [1]) [nM] | DC50 (TYK2 [2]) [nM] | DC50 (TYK2 [3]) [nM]
CNc1cc(Nc2cccn(-c3cc(C(=O)NCCOCCOCCOCCOCCc4ccc5c(c4)n(C)c(=O)n5C4CCC(=O)NC4=O)ccn3)c2=O)nn2c(C(=O)N[C@@H]3C[C@@H]3F)cnc12 (stereo partly drawn) [Example K241] | > 100 | > 100 | > 100
CNc1cc(Nc2cccc(CN3CCN(Cc4ccc5c(c4)n(C)c(=O)n5C4CCC(=O)NC4=O)CC3)c2)nn2c(C(=O)NC3CC3)cnc12 (stereo not drawn) [Example K602] | > 100 | > 100 | > 100
CNc1cc(Nc2cccn(-c3ccc(C(=O)N4CC(CN5CCC(c6cccc7c6n(C)c(=O)n7C6CCC(=O)NC6=O)CC5)C4)cn3)c2=O)nn2c(C(=O)N[C@@H]3C[C@@H]3F)cnc12 (stereo partly drawn) [Example K450] | < 1 | > 100 | > 100
CNC(=O)c1cnc(Nc2ccc(CN3CCC(N(C)c4cccc5c4n(C)c(=O)n5C4CCC(=O)NC4=O)C3)cn2)cc1Nc1cccc(-c2ncc(F)cn2)c1OC (stereo not drawn) [Example K705] | > 100 | < 1 | > 100
CNC(=O)c1cnc(Nc2ccc(CN(C)C3CCCN(c4cccc5c4n(C)c(=O)n5C4CCC(=O)NC4=O)C3)cn2)cc1Nc1cccc(-c2ncc(F)cn2)c1OC (stereo not drawn) [Example K162] | > 100 | 1 to 10 | > 100
CNc1cc(Nc2cccn(C3CCN(C(=O)COCCOCCc4ccc5c(c4)n(C)c(=O)n5C4CCC(=O)NC4=O)CC3)c2=O)nn2c(C(=O)N[C@@H]3C[C@@H]3F)cnc12 (stereo partly drawn) [Example K275] | > 100 | > 100 | > 100
CNc1cc(Nc2cccc(-c3ccc(CN4CCN(c5ccc(-c6ccc7c(c6)n(C)c(=O)n7C6CCC(=O)NC6=O)cc5)CC4)cn3)c2)nn2c(C(=O)N[C@@H]3C[C@@H]3F)cnc12 (stereo partly drawn) [Example K499] | > 100 | > 100 | > 100
CNC(=O)c1cnc(NC(=O)NCCCCCCCCCc2cccc3c2n(C)c(=O)n3C2CCC(=O)NC2=O)cc1Nc1cccc(-c2ncc(F)cn2)c1OC (stereo not drawn) [Example K183] | > 100 | > 100 | 1 to 10
Cc1cc(Nc2cccc(-c3ccc(CN4CCN(c5ccc(-c6ccc7c(c6)n(C)c(=O)n7C6CCC(=O)NC6=O)cc5)CC4)cn3)c2)nn2c(C(=O)N[C@@H]3C[C@@H]3F)cnc12 (stereo partly drawn) [Example K502] | 1 to 10 | > 100 | > 100
CNC(=O)c1cnc(Nc2ccc(CN3CC(c4ccc5c(c4)n(C)c(=O)n5C4CCC(=O)NC4=O)C3)cn2)cc1Nc1cccc(-c2ncc(F)cn2)c1OC (stereo not drawn) [Example K199] | > 100 | > 100 | 1 to 10
CNc1cc(Nc2cccn(-c3ccc(C(=O)N4CCCC5(C4)CN(c4ncc(C#Cc6ccc7c(c6)n(C)c(=O)n7C6CCC(=N)NC6=O)cn4)C5)cn3)c2=O)nn2c(C(=O)N[C@@H]3C[C@@H]3F)cnc12 (stereo partly drawn) [Example K371] | > 100 | 1 to 10 | > 100
CNc1cc(-c2ccc(N3CCC(CN4CC5(CCN(c6cccc7c6n(C)c(=O)n7C6CCC(=O)NC6=O)CC5)C4)CC3)cc2)nn2c(C(=O)N[C@@H]3C[C@@H]3F)cnc12 (mixture of isomers) [Example K533] | > 100 | > 100 | > 100
Cn1c(=O)n(C2CCC(=O)NC2=O)c2ccc(CN3CCC(CNc4cc(Nc5cccn(-c6ccccn6)c5=O)nn5c(C(=O)N[C@@H]6C[C@@H]6F)cnc45)CC3)cc21 (stereo partly drawn) [Example K360] | > 100 | > 100 | > 100
CNc1cc(-c2cnn(C3CCC(CN4CC5(CCN(c6ccc7c(c6)n(C)c(=O)n7C6CCC(=O)NC6=O)CC5)C4)CC3)c2)nn2c(C(=O)N[C@@H]3C[C@@H]3F)cnc12 (stereo partly drawn) [Example K363] | > 100 | > 100 | < 1
CNc1cc(Nc2cccn(-c3cccc(C(=O)NCCOCCOCCc4cccc5c4n(C)c(=O)n5C4CCC(=O)NC4=O)c3)c2=O)nn2c(C(=O)N[C@@H]3C[C@@H]3F)cnc12 (stereo partly drawn) [Example K236] | > 100 | > 100 | 1 to 10
CNc1cc(N2CCc3c(-c4ccc(CN5CCN(c6ccc(-c7ccc8c(c7)n(C)c(=O)n8C7CCC(=O)NC7=O)cc6)CC5)cn4)cccc32)nn2c(-c3cn(C(C)C)nn3)cnc12 (stereo not drawn) [Example K631] | 1 to 10 | > 100 | > 100
CNc1cc(Nc2cccc(N3CCC(CN4CC5(CCN(c6cccc7c6n(C)c(=O)n7C6CCC(=O)NC6=O)CC5)C4)CC3)c2)nn2c(C(=O)N[C@@H]3C[C@@H]3F)cnc12 (stereo partly drawn) [Example K520] | < 1 | > 100 | > 100
CNc1cc(Nc2cccc(CN3CCC4(CC3)CCN(c3ccc5c(c3)[nH]c(=O)n5C3CCC(=O)NC3=O)C4)c2)nn2c(C(=O)NC3CC3)cnc12 (stereo not drawn) [Example K601] | > 100 | > 100 | > 100

Structure (SMILES) | DC50 (TYK2 [1]) [nM] | DC50 (TYK2 [2]) [nM] | DC50 (TYK2 [3]) [nM]
CNc1cc(Nc2cccc(CN3CCN(c4cccc5c4n(C)c(=O)n5C4CCC(=O)NC4=O)CC3)c2)nn2c(C(=O)NC3CC3)cnc12 (stereo not drawn) [Example K594] | > 100 | > 100 | > 100
CNc1cc(Nc2cccc(-c3ccc(CN4CCN(C5CCN(c6ccc7c(c6)n(C)c(=O)n7C6CCC(=O)NC6=O)CC5)CC4)cn3)c2)nn2c(C(=O)N[C@@H]3C[C@@H]3F)cnc12 (stereo partly drawn) [Example K435] | < 1 | > 100 | > 100
CNc1cc(Nc2cccn(-c3ccc(C(=O)N4CCN(CCOc5cccc(-c6ccc7c(c6)n(C)c(=O)n7C6CCC(=O)NC6=O)c5)CC4)cn3)c2=O)nn2c(C(=O)N[C@@H]3C[C@@H]3F)cnc12 (stereo partly drawn) [Example K440] | < 1 | > 100 | > 100
CNc1cc(N2CCc3c(CN4CCN(c5ccc(-c6ccc7c(c6)n(C)c(=O)n7C6CCC(=O)NC6=O)cc5)CC4)cccc32)nn2c(C(=O)N[C@@H]3C[C@@H]3F)cnc12 (mixture of isomers) [Example K575] | 1 to 10 | > 100 | > 100
CNC(=O)c1cnc(Nc2ccc(CN3CCCC4(C3)CN(c3ncc(C#Cc5ccc6c(c5)n(C)c(=O)n6C5CCC(=O)NC5=O)cn3)C4)cn2)cc1Nc1cccc(-c2ncc(F)cn2)c1OC (stereo not drawn) [Example K145] | > 100 | 1 to 10 | 1 to 10
CNc1cc(Nc2cccn(C3CCN(C(=O)NCCCCc4ccc5c(c4)n(C)c(=O)n5C4CCC(=O)NC4=O)CC3)c2=O)nn2c(C(=O)N[C@@H]3C[C@@H]3F)cnc12 (stereo partly drawn) [Example K277] | > 100 | > 100 | 1 to 10
CNC(=O)c1cnc(Nc2ccc(CN3CCN(c4cccc5c4n(C)c(=O)n5C4CCC(=O)NC4=O)CC3)cn2)cc1Nc1cccc(-c2ncc(F)cn2)c1OC (stereo not drawn) [Example K173] | > 100 | < 1 | > 100
CNC(=O)c1cnc(Nc2ccc(C(=O)NCCCCCCCCc3cc(N4CCCC(C(=O)Nc5ccc(=O)n(CC(=O)OC)c5)C4)ccn3)cn2)cc1Nc1cccc(-c2ncc(F)cn2)c1OC (stereo not drawn) [Example K598] | > 100 | > 100 | > 100
CNc1cc(Nc2cccn(-c3ccc(C(=O)N4CCC(CN5CCCC(c6cccc7c6n(C)c(=O)n7C6CCC(=O)NC6=O)C5)CC4)cn3)c2=O)nn2c(C(=O)N[C@@H]3C[C@@H]3F)cnc12 (stereo partly drawn) [Example K451] | < 1 | > 100 | > 100
CNc1cc(Nc2cccc(CN3CCC([C@@H]4CCN(c5ccc6c(c5)n(C)c(=O)n6C5CCC(=O)NC5=O)C4)CC3)c2)nn2c(C(=O)NC3CC3)ncc12 (stereo partly drawn) [Example K581] | < 1 | > 100 | > 100
CNc1cc(Nc2cccn(-c3ccc(C(=O)N4CCC(N5CC(c6ccc7c(c6)n(C)c(=O)n7C6CCC(=O)NC6=O)C5)CC4)cn3)c2=O)nn2c(C(=O)N[C@@H]3C[C@@H]3F)cnc12 (stereo partly drawn) [Example K410] | < 1 | > 100 | > 100
COc1c(Nc2cc(Nc3cc(C(=O)NCCCCc4cccc5c4n(C)c(=O)n5C4CCC(=O)NC4=O)ccn3)ncc2C(=O)NC2CC2)cccc1-c1ncc(F)cn1 (stereo not drawn) [Example K179] | > 100 | > 100 | 10 to 100
CNc1cc(-c2cnn(C3CN(C(=O)NCCCCCCCCc4cccc5c4n(C)c(=O)n5C4CCC(=O)NC4=O)C3)c2)nn2c(C(=O)N[C@@H]3C[C@@H]3F)cnc12 (stereo partly drawn) [Example K319] | > 100 | > 100 | > 100
CNc1cc(Nc2cccc(-c3ccc(CN4CC5(CCN(c6ccc(C7CCC(=O)NC7=O)cc6)CC5)C4)cn3)c2)nn2c(C(=O)N[C@@H]3C[C@@H]3F)cnc12 (stereo partly drawn) [Example K500] | > 100 | > 100 | > 100
CCNC(=O)c1cnc(Nc2ccc(C(=O)N(C)C3CCN(c4ccc5c(c4)n(C)c(=O)n5C4CCC(=O)NC4=O)CC3)cn2)cc1Nc1cccc(-c2ncc(F)cn2)c1OC (stereo not drawn) [Example K152] | > 100 | 1 to 10 | > 100
CCNC(=O)c1cnc(Nc2cc(C(=O)NCCCCc3cccc4c3n(C)c(=O)n4C3CCC(=O)NC3=O)ccn2)cc1Nc1cccc(-c2ncc(F)cn2)c1OC (stereo not drawn) [Example K181] | > 100 | > 100 | 1 to 10
CNC(=O)c1cnc(Nc2ccc(CN3CCC(CN(C)c4ccc5c(c4)n(C)c(=O)n5C4CCC(=O)NC4=O)CC3)cn2)cc1Nc1cccc(-c2ncc(F)cn2)c1OC (stereo not drawn) [Example K147] | > 100 | < 1 | 1 to 10
CNC(=O)c1cnc(Nc2ccc(CN(C)C3CCN(c4ccc5c(c4)n(C)c(=O)n5C4CCC(=O)NC4=O)C3)cn2)cc1Nc1cccc(-c2ncc(F)cn2)c1OC (stereo not drawn) [Example K170] | > 100 | < 1 | > 100
